Measurements taken from patent publication US20260297081A1, “COMPOUNDS AND METHODS OF TREATING CANCERS” (Cullgen Inc., priority 2023, published 2026).

Target: CDK4 (Homo sapiens, UniProt P11802+Q16531)
Experiment: HiBiT detection of HiBiT-tagged CDK4 protein level in MCF7 cells, 16 hours (Table 8)
Assay type: cell-based
Design: expressed in transfected cells; host or cells: MCF7
Conditions: MCF7 cells stably expressing HiBiT tagged target proteins; for activity at 0.01 µM: 10 nM, read-out: % CDK4 Relative Level (10 nM); for activity at 0.1 µM: 100 nM, read-out: % CDK4 Relative Level (100 nM)
Experimental: HiBiT detection system quantitatively measures total amounts of HiBiT-tagged proteins using a luminescent based method. MCF7 cells stably expressing HiBiT tagged target proteins were treated with heterobifunctional compounds at indicated concentrations for 16 hours, then lysed with Nano-Glo HiBiT Lytic detection reagents.

Sequence of CDK4 (P11802 whole entry): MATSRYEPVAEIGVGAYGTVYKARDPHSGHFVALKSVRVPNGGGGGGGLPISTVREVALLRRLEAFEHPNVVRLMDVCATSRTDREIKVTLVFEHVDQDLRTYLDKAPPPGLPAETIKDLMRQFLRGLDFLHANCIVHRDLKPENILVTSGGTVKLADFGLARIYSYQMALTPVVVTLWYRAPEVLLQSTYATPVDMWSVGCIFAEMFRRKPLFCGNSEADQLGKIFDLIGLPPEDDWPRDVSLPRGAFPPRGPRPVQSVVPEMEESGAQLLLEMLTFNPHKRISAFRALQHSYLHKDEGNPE
Sequence of CDK4 (P24385 whole entry partner): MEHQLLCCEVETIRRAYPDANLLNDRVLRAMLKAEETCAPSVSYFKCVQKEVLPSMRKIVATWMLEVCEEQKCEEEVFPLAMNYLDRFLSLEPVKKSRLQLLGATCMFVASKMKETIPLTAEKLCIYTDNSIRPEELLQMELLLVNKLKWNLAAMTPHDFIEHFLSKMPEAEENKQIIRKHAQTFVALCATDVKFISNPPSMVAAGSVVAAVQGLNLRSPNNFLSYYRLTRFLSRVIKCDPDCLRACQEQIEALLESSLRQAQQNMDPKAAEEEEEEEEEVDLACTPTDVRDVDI
Sequence of CDK4 (Q16531 2-1140 limits assumed): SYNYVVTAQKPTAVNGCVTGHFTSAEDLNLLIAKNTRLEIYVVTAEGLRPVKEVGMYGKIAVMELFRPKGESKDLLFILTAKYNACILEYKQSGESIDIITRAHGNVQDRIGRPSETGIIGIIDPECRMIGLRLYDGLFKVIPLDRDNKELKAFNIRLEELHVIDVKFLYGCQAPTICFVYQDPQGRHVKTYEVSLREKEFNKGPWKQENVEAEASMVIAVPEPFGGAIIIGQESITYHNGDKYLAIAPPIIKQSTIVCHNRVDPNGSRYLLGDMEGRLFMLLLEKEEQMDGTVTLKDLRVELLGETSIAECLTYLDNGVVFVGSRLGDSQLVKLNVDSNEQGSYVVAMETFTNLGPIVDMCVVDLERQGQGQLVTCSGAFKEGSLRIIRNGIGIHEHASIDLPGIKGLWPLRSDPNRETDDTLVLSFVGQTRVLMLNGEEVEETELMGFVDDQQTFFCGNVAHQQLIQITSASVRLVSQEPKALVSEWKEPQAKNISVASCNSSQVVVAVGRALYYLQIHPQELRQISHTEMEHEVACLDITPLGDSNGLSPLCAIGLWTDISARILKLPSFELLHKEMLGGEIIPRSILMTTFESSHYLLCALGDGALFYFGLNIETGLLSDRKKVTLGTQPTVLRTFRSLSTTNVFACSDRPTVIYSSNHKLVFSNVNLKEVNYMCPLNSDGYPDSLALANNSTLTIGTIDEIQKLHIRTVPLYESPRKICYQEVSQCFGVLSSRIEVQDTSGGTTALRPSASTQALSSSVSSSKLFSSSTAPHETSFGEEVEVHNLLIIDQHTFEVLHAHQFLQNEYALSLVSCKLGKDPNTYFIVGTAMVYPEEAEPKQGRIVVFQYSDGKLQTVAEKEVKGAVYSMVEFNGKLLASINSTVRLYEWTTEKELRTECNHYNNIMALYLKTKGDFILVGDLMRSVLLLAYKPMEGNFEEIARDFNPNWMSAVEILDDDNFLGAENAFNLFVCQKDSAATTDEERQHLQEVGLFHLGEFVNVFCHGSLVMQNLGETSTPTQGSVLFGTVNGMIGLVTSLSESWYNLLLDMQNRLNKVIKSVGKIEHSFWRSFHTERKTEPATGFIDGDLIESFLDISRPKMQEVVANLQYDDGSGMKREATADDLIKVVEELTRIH

| SMILES | activity at 0.01 µM [%] | activity at 0.1 µM [%] |
| --- | --- | --- |
| CNc1ccc(C(=O)Nc2ccc(N(C)C)nn2)c(NCCCCCCC(=O)N2CCN(Cc3ccc(Nc4ncc(F)c(-c5cc(F)c6nc(C)n(C(C)C)c6c5)n4)nc3)CC2)n1 [CPD-604, N-(6-(dimethylamino)pyridazin-3-yl)-2-((7-(4-((6-((5-fluoro-4-(4-fluoro-1-isopropyl-2-methyl-1H-benzo[d]imidazol-6-yl)pyrimidin-2-yl)amino)pyridin-3-yl)methyl)piperazin-1-yl)-7-oxoheptyl)amino)-6-(methylamino)nicotinamide] | > 85 | > 85 |
| CNc1ccc(C(=O)Nc2ccc(N(C)C)nn2)c(NCCCCCCCC(=O)N2CCN(Cc3ccc(Nc4ncc(F)c(-c5cc(F)c6nc(C)n(C(C)C)c6c5)n4)nc3)CC2)n1 [CPD-605, N-(6-(dimethylamino)pyridazin-3-yl)-2-((8-(4-((6-((5-fluoro-4-(4-fluoro-1-isopropyl-2-methyl-1H-benzo[d]imidazol-6-yl)pyrimidin-2-yl)amino)pyridin-3-yl)methyl)piperazin-1-yl)-8-oxooctyl)amino)-6-(methylamino)nicotinamide] | > 85 | > 85 |
| CNc1ccc(C(=O)Nc2ccc(N(C)C)nn2)c(NCCOCCC(=O)N2CCN(Cc3ccc(Nc4ncc(F)c(-c5cc(F)c6nc(C)n(C(C)C)c6c5)n4)nc3)CC2)n1 [CPD-606, N-(6-(dimethylamino)pyridazin-3-yl)-2-((2-(3-(4-((6-((5-fluoro-4-(4-fluoro-1-isopropyl-2-methyl-1H-benzo[d]imidazol-6-yl)pyrimidin-2-yl)amino)pyridin-3-yl)methyl)piperazin-1-yl)-3-oxopropoxy)ethyl)amino)-6-(methylamino)nicotinamide] | > 85 | > 85 |
| CNc1ccc(C(=O)Nc2ccc(N(C)C)nn2)c(NCCCCNC(=O)CN2CCN(Cc3ccc(Nc4ncc(F)c(-c5cc(F)c6nc(C)n(C(C)C)c6c5)n4)nc3)CC2)n1 [CPD-610, N-(6-(dimethylamino)pyridazin-3-yl)-2-((4-(2-(4-((6-((5-fluoro-4-(4-fluoro-1-isopropyl-2-methyl-1H-benzo[d]imidazol-6-yl)pyrimidin-2-yl)amino)pyridin-3-yl)methyl)piperazin-1-yl)acetamido)butyl)amino)-6-(methylamino)nicotinamide] | > 85 | > 85 |
| CNc1ccc(C(=O)Nc2ccc(N(C)C)nn2)c(NCCCCCNC(=O)CN2CCN(Cc3ccc(Nc4ncc(F)c(-c5cc(F)c6nc(C)n(C(C)C)c6c5)n4)nc3)CC2)n1 [CPD-611, N-(6-(dimethylamino)pyridazin-3-yl)-2-((5-(2-(4-((6-((5-fluoro-4-(4-fluoro-1-isopropyl-2-methyl-1H-benzo[d]imidazol-6-yl)pyrimidin-2-yl)amino)pyridin-3-yl)methyl)piperazin-1-yl)acetamido)pentyl)amino)-6-(methylamino)nicotinamide] | > 85 | > 85 |
| CNc1ccc(C(=O)Nc2ccc(N(C)C)nn2)c(NCCCCCCNC(=O)CN2CCN(Cc3ccc(Nc4ncc(F)c(-c5cc(F)c6nc(C)n(C(C)C)c6c5)n4)nc3)CC2)n1 [CPD-612, N-(6-(dimethylamino)pyridazin-3-yl)-2-((6-(2-(4-((6-((5-fluoro-4-(4-fluoro-1-isopropyl-2-methyl-1H-benzo[d]imidazol-6-yl)pyrimidin-2-yl)amino)pyridin-3-yl)methyl)piperazin-1-yl)acetamido)hexyl)amino)-6-(methylamino)nicotinamide] | > 85 | > 85 |
| CNc1ccc(C(=O)Nc2ccc(N(C)C)nn2)c(NCCCCCCCNC(=O)CN2CCN(Cc3ccc(Nc4ncc(F)c(-c5cc(F)c6nc(C)n(C(C)C)c6c5)n4)nc3)CC2)n1 [CPD-613, N-(6-(dimethylamino)pyridazin-3-yl)-2-((7-(2-(4-((6-((5-fluoro-4-(4-fluoro-1-isopropyl-2-methyl-1H-benzo[d]imidazol-6-yl)pyrimidin-2-yl)amino)pyridin-3-yl)methyl)piperazin-1-yl)acetamido)heptyl)amino)-6-(methylamino)nicotinamide] | > 85 | > 85 |
| CNc1ccc(C(=O)Nc2ccc(N(C)C)nn2)c(NCCCCCCCCNC(=O)CN2CCN(Cc3ccc(Nc4ncc(F)c(-c5cc(F)c6nc(C)n(C(C)C)c6c5)n4)nc3)CC2)n1 [CPD-614, N-(6-(dimethylamino)pyridazin-3-yl)-2-((8-(2-(4-((6-((5-fluoro-4-(4-fluoro-1-isopropyl-2-methyl-1H-benzo[d]imidazol-6-yl)pyrimidin-2-yl)amino)pyridin-3-yl)methyl)piperazin-1-yl)acetamido)octyl)amino)-6-(methylamino)nicotinamide] | > 85 | > 85 |
| CNc1ccc(C(=O)Nc2ccc(N(C)C)nn2)c(NCCOCCNC(=O)CN2CCN(Cc3ccc(Nc4ncc(F)c(-c5cc(F)c6nc(C)n(C(C)C)c6c5)n4)nc3)CC2)n1 [CPD-615, N-(6-(dimethylamino)pyridazin-3-yl)-2-((2-(2-(2-(4-((6-((5-fluoro-4-(4-fluoro-1-isopropyl-2-methyl-1H-benzo[d]imidazol-6-yl)pyrimidin-2-yl)amino)pyridin-3-yl)methyl)piperazin-1-yl)acetamido)ethoxy)ethyl)amino)-6-(methylamino)nicotinamide] | > 85 | > 85 |
| CNc1ccc(C(=O)Nc2ccc(N(C)C)nn2)c(NCCOCCOCCC(=O)N2CCN(c3ccc(Nc4ncc5cc(C(=O)N(C)C)n(C6CCCC6)c5n4)nc3)CC2)n1 [CPD-623, 7-cyclopentyl-2-((5-(4-(3-(2-(2-((3-((6-(dimethylamino)pyridazin-3-yl)carbamoyl)-6-(methylamino)pyridin-2-yl)amino)ethoxy)ethoxy)propanoyl)piperazin-1-yl)pyridin-2-yl)amino)-N,N-dimethyl-7H-pyrrolo[2,3-d]pyrimidine-6-carboxamide] | > 85 | > 85 |
| CNc1ccc(C(=O)Nc2ccc(N(C)C)nn2)c(NCCNC(=O)CN2CCN(c3ccc(Nc4ncc5cc(C(=O)N(C)C)n(C6CCCC6)c5n4)nc3)CC2)n1 [CPD-624, 7-cyclopentyl-2-((5-(4-(2-((2-((3-((6-(dimethylamino)pyridazin-3-yl)carbamoyl)-6-(methylamino)pyridin-2-yl)amino)ethyl)amino)-2-oxoethyl)piperazin-1-yl)pyridin-2-yl)amino)-N,N-dimethyl-7H-pyrrolo[2,3-d]pyrimidine-6-carboxamide] | 55 to 85 | 55 to 85 |
| CNc1ccc(C(=O)Nc2ccc(N(C)C)nn2)c(NCCOCCNC(=O)CN2CCN(c3ccc(Nc4ncc5cc(C(=O)N(C)C)n(C6CCCC6)c5n4)nc3)CC2)n1 [CPD-631, 7-cyclopentyl-2-((5-(4-(2-((2-(2-((3-((6-(dimethylamino)pyridazin-3-yl)carbamoyl)-6-(methylamino)pyridin-2-yl)amino)ethoxy)ethyl)amino)-2-oxoethyl)piperazin-1-yl)pyridin-2-yl)amino)-N,N-dimethyl-7H-pyrrolo[2,3-d]pyrimidine-6-carboxamide] | > 85 | > 85 |

Next, values leading:

| activity at 0.01 µM [%] | activity at 0.1 µM [%] | SMILES |
| --- | --- | --- |
| > 85 | > 85 | CNc1ccc(C(=O)Nc2ccc(N(C)C)nn2)c(NCCC(=O)N2CCN(c3ccc(Nc4ncc5cc6n(c5n4)C4(CCCCC4)CNC6=O)nc3)CC2)n1 [CPD-632, N-(6-(dimethylamino)pyridazin-3-yl)-6-(methylamino)-2-((3-oxo-3-(4-(6-((6′-oxo-7′,8′-dihydro-6′H-spiro[cyclohexane-1,9′-pyrazino[1′,2′:1,5]pyrrolo[2,3-d]pyrimidin]-2′-yl)amino)pyridin-3-yl)piperazin-1-yl)propyl)amino)nicotinamide] |
| > 85 | > 85 | CNc1ccc(C(=O)Nc2ccc(N(C)C)nn2)c(NCCCCCCCC(=O)N2CCN(c3ccc(Nc4ncc5cc6n(c5n4)C4(CCCCC4)CNC6=O)nc3)CC2)n1 [CPD-637, N-(6-(dimethylamino)pyridazin-3-yl)-6-(methylamino)-2-((8-oxo-8-(4-(6-((6′-oxo-7′,8′-dihydro-6′H-spiro[cyclohexane-1,9′-pyrazino[1′,2′:1,5]pyrrolo[2,3-d]pyrimidin]-2′-yl)amino)pyridin-3-yl)piperazin-1-yl)octyl)amino)nicotinamide] |
| > 85 | > 85 | CNc1ccc(C(=O)Nc2ccc(N(C)C)nn2)c(NCCOCCC(=O)N2CCN(c3ccc(Nc4ncc5cc6n(c5n4)C4(CCCCC4)CNC6=O)nc3)CC2)n1 [CPD-638] |
| > 85 | 55 to 85 | CNc1ccc(C(=O)Nc2ccc(N(C)C)nn2)c(NCCNC(=O)CN2CCN(c3ccc(Nc4ncc5cc6n(c5n4)C4(CCCCC4)CNC6=O)nc3)CC2)n1 [CPD-640, N-(6-(dimethylamino)pyridazin-3-yl)-6-(methylamino)-2-((2-(2-(4-(6-((6′-oxo-7′,8′-dihydro-6′H-spiro[cyclohexane-1,9′-pyrazino[1′,2′:1,5]pyrrolo[2,3-d]pyrimidin]-2′-yl)amino)pyridin-3-yl)piperazin-1-yl)acetamido)ethyl)amino)nicotinamide] |
| > 85 | > 85 | CNc1ccc(C(=O)Nc2ccc(N(C)C)nn2)c(NCCCNC(=O)CN2CCN(c3ccc(Nc4ncc5cc6n(c5n4)C4(CCCCC4)CNC6=O)nc3)CC2)n1 [CPD-641, N-(6-(dimethylamino)pyridazin-3-yl)-6-(methylamino)-2-((3-(2-(4-(6-((6′-oxo-7′,8′-dihydro-6′H-spiro[cyclohexane-1,9′-pyrazino[1′,2′:1,5]pyrrolo[2,3-d]pyrimidin]-2′-yl)amino)pyridin-3-yl)piperazin-1-yl)acetamido)propyl)amino)nicotinamide] |
